Data: US20250090510A1, “eIF4G1-eIF1 INHIBITORS AND USE THEREOF” (YEDA RESEARCH AND DEVELOPMENT CO. LTD., priority 2022, published 2025)

Assays:
[1] = system: leaky scanning from cap-proximal AUG in HEK293T cells; assay: Leaky scanning GFP reporter with cap-proximal upstream AUG, western blot; type: cell-based, human; conditions: upstream AUG with 16 nt 5′UTR
Text: FIGS. 1A-G: Identification and initial characterization of eIF1-eIF4G1 inhibitors using a high-throughput drug screen (HTS). (1A) A flowchart describing the steps of the recombinant eIF1-eIF4G1 split-RL HTS. (1B) Selection of drugs that inhibit leaky scanning. HEK293T cells were transfected with a short 5′UTR bearing GFP reporter gene described on the top, treated with the indicated HTS hits, and then analyzed by western blot with GFP antibody. US and DS denote upstream and downstream AUG initiation sites, respectively. (1C) A graph showing the change in the ratio of the upstream and downstream AUG following treatment with the indicated drugs. (1D) The chemical structure of the eIF1-eIF4G1 inhibitors, i14G1-10 and i14G1-12. (1E) His-tagged eIF4G1 and His-tagged eIF1 were expressed in BL21 bacteria and purified using nickel NTA beads. Purified His-tagged eIF4G1 and His-tagged eIF1 were incubated with the indicated doses of either i14G1-10 (0-256 μM) or i14G1-12 (0-256 μM) for 5 minutes, followed by fluorescence measurement. For eIF4G1 excitation was at 280 nm and emission was at 350 nm. For eIF1 excitation was at 274 nm and emission was at 304 nm. The data shown represent three independent replicates. IC50 was calculated using Graphpad prism 9. (1F-1G) Western blots of GST pull down. […]
To address the functional significance of the temporal eIF1-eIF4G1 interaction, the inventors set out to develop pharmacological tools against this complex. To this end, the split-Renilla luciferase (RL) complementation assay previously found to be an efficient readout of eIF1 and eIF4G1 interaction in mammalian cells and a highly sensitive and powerful approach for the identification of protein-protein inhibitors was used. […] As knockdown of either eIF1 or eIF4G1 and interference with eIF1-eIF4G1 interaction led to the arrest of leaky scanning from cap-proximal AUG, the selected compounds were analyzed for their effect on initiation from cap-proximal AUG. […]

eIF4E-eIF4G1 complex = target: T1, eIF4E-eIF4G1 complex (Homo sapiens, UniProt Q04637); assay: Co-immunoprecipitation of endogenous eIF4G1 with HA-eIF4E; type: cell-based; conditions: ER stress, Thapsigargin 1 μM, 1 hour
T1 construct: co-immunoprecipitation of endogenous eIF4G1 in HEK293T cells expressing HA-eIF1 or HA-eIF4E was performed; endogenous in cells; host or cells: HEK293T (eIF4G1 endogenous; HA-eIF4E transfected)
Protocol: (§1) FIGS. 2A-C: The effect of i14G1-10 and i14G1-12 on eIF1-eIF4G1 and eIF4E-eIF4G1 complexes. (2A-B) HA-eIF1 and HA-eIF4E were each transfected into HEK293T cells and 48 h after transfection cells were treated with DMSO or i14G1-10 (2A) or i14G1-12 (2B) for 4 h, followed by immunoprecipitation of HA-eIF1 or HA-eIF4E using anti-HA-agarose beads. Western blot was run to check co-immunoprecipitation of endogenous eIF4G1 with HA-eIF1 or HA-eIF4E. The graphs represent the co-immunoprecipitation of eIF4G1 with HA-eIF1 (right) or HA-eIF4E (left). Co—IP data shown as mean±SEM of 4-7 independent experiments. The asterisks denote statistically significant difference compared to DMSO, according to Student's t-tests (one-tailed, paired). *p<0.05. (2C) HEK293T cells were treated with DMSO, i14G1-10, or i14G1-12 for 4 h, followed by cell lysis. Respective cell lysates were incubated with cap analog (γ-Aminohexyl-m7GTP) beads for 2 h to precipitate bound eIF4E. Western blot was performed to check co-precipitation of eIF4G1 along with eIF4E on the cap-analog beads. The graph represents the binding fraction of eIF4G1 and eIF4E to the cap-analog beads (mean±SEM) with DMSO (black), i14G1-10 (blue), and i14G1-12 (red), n=6. The asterisks denote statistically significant difference compared to DMSO, according to Student's t-tests (one-tailed, paired). *p<0.05; **p<0.01.
(§2) Co-immunoprecipitation. HEK293T cells were transfected with 5 μg of HA-eIF1 or HA-eIF4E plasmids along with 10 ng GFP plasmid to check for transfection efficiency using Jetprime reagent as per manufacturer's protocol. After 48 h, HA-eIF1 and HA-eIF4E expressing HEK293T cells were incubated with DMSO, i14G1-10 (20 μM), and […] (10 μM). 4 h later, cells were lysed using IP buffer (20 mM Tris pH8, 125 mM NaCl, 10% glycerol, 50 mM NaF, 1 mM […], 0.5% NP-40, and 0.2 mM EDTA) supplemented with fresh protease inhibitor cocktail (1:100) and PMSF 200 μM (1:100). Protein extract was taken for immunoprecipitation using either monoclonal anti-HA-agarose antibody (Sigma) or control IgG antibody in IP buffer, at 4° C. for 2 hours. […]

eIF1-eIF4G1 complex = target: T2, eIF1-eIF4G1 complex (Homo sapiens, UniProt Q04637); assay: Co-immunoprecipitation of endogenous eIF4G1 with HA-eIF1; type: cell-based; conditions: ER stress, Thapsigargin 1 μM, 1 hour
T2 construct: co-immunoprecipitation of endogenous eIF4G1 in HEK293T cells expressing HA-eIF1 or HA-eIF4E was performed; endogenous in cells; host or cells: HEK293T (eIF4G1 endogenous; HA-eIF1 transfected)
Protocol: as §1, §2

T2 sequence (Q04637 whole entry, one chain of several): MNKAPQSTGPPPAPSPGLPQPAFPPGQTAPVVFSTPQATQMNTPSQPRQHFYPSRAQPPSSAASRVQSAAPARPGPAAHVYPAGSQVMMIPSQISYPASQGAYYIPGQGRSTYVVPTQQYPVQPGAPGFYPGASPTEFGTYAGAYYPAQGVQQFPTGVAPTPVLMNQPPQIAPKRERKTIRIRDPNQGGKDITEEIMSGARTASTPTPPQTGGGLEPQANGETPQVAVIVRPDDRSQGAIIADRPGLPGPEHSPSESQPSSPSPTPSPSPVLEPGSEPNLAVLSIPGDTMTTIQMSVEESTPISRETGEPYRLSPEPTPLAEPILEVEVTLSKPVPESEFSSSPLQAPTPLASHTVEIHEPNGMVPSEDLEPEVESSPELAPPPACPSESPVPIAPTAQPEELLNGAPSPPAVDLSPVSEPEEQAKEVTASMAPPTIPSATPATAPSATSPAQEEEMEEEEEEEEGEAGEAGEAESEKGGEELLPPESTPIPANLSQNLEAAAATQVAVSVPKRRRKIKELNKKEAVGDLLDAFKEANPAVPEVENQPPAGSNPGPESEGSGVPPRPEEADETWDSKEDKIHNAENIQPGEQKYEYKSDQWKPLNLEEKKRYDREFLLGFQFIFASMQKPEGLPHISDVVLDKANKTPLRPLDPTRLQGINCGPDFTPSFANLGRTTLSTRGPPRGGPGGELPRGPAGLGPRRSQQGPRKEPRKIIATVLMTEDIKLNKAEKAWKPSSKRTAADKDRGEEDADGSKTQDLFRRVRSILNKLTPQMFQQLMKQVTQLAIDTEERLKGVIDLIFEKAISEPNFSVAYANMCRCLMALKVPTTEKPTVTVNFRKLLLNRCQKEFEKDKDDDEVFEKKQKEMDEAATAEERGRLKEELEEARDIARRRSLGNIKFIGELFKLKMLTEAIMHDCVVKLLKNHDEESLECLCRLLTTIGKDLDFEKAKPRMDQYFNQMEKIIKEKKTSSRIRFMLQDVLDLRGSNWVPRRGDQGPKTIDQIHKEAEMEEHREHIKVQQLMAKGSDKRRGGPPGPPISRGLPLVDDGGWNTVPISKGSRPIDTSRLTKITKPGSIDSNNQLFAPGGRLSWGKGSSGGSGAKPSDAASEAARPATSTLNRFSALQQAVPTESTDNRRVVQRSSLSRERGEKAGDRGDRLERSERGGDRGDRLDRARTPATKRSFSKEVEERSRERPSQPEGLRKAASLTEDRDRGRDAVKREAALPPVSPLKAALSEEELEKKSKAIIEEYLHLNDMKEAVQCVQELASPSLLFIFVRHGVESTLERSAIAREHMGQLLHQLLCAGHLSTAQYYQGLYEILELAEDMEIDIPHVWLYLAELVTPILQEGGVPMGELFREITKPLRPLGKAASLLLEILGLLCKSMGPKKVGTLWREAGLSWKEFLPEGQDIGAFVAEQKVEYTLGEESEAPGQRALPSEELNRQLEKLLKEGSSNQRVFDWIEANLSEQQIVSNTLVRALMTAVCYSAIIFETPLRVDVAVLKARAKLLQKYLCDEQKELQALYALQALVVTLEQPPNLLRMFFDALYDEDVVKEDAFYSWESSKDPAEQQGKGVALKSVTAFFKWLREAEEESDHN
T1 sequence (Q04637 whole entry): as the sequence (Q04637 whole entry, one chain of several) above
T1 sequence (P06730 whole entry partner): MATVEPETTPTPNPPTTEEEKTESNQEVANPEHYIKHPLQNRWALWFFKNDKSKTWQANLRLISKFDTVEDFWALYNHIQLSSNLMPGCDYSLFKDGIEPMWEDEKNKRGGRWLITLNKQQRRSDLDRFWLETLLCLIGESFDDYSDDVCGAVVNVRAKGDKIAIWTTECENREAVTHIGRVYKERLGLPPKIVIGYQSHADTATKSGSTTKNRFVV

| SMILES | upstream to downstream AUG ratio (leaky scanning) [1] | level of co-precipitated eIF4G1 with HA-eIF4E (eIF4E-eIF4G1 complex) | reduction of co-precipitated eIF4G1 with HA-eIF1 (eIF1-eIF4G1 complex) [%] |
| --- | --- | --- | --- |
| Cc1ccc(/C(=C\C=C(C#N)C#N)Sc2nc3ccccc3s2)cc1 [i14G1-11] | selectively changed the upstream to downstream ratio by inhibiting leaky scanning from the cap-proximal AUG |  |  |
| C/C=C(/C)C(=O)O[C@H]1C(C)=C2[C@H]([C@@H]1OC(=O)CCCCCCC)[C@@](C)(OC(C)=O)C[C@H](OC(=O)CCC)[C@@]1(O)[C@H]2OC(=O)[C@@]1(C)O [Thapsigargin, reference compound] |  | no significant change | 50 |
